# Read-outs that look alike come from different tables or passages of the source.
# Columns and labels:
# P. aeruginosa PAO1 = test system: P. aeruginosa PAO1
# How it was run: (§1)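 Growth inhibition is judged by eye after MTT addition, the MIC being the lowest compound concentration whose well stays yellow. Bacteria from overnight LB cultures are diluted in MH medium at pH 7.4 to roughly 5 × 10^5 CFU and incubated with doubling dilutions at 37 °C, unshaken, 16–20 h.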
# E. coli W3110 = test system: E. coli W3110
# How it was run: as §1
# A. baumannii ATCC19606 = test system: A. baumannii ATCC19606
# How it was run: as §1
# [1] = test system: Pseudomonas aeruginosa, Klebsiella pneumoniae, Acinetobacter baumannii, Escherichia coli, and methicillin-resistant Staphylococcus aureus; settings: summary of Table 1
# How it was run: as §1
# [2] = EYPC vesicle leakage assay; assay type: biochemical; settings: 10 μg/mL of compound; 10 mM TRIS, 107 mM NaCl, pH 7.4
# Experimental: 5(6)-carboxyfluorescein (CF) was purchased from Sigma. EYPC, EYPG, and a Mini-Extruder were purchased from Avanti Polar Lipids. Egg PC or Egg PG thin lipid layers were prepared by evaporating a solution of 100 mg of EYPC or EYPG in 4 mL of MeOH/CHCl3 (1:1) on a rotary evaporator at room temperature and then dried in vacuo overnight. […] Extravesicular components were removed by gel filtration (Sephadex G-50) with 10 mM TRIS, 107 mM NaCl, pH 7.4 buffer. Final conditions: ∼2.5 mM PC or PG; inside: 50 mM CF, 10 mM TRIS, 10 mM NaCl, pH 7.4 buffer; outside: 10 mM TRIS, 107 mM NaCl, pH 7.4. […] The CF efflux was monitored at λem 517 nm (λex 492 nm) as a function of time after addition of the desired volume of peptide from 2 mg/mL stock in mQ water at t = 45 s, 10 and 50 μg/mL were monitored for both EYPC and EYPG. […] Fluorescence intensities were then normalized to the maximal emission intensity using I(t) = (It – I0)/(I∞ – I0) where I0 = It at peptide addition, I∞ = It at saturation of lysis.
# Staphylococcus epidermis = test: MIC broth microdilution, Staphylococcus epidermis; assay type: cell-based; settings: pH 7.4
# Experimental: (§2) Antimicrobial activity was determined for all peptides on E. coli W3110, P. aeruginosa PAO1, A. baumannii ATCC19606, K. pneumoniae NCTC418, and methicillin-resistant S. aureus COL and for selected peptides on P. aeruginosa PA14 and the polymyxin B-resistant derivatives PA14 4.13, PA14 4.18, and PA14 2P4 as well as the clinical isolates ZEM-1A and ZEM9A, K. pneumoniae OXA-48, Enterobacter cloacae, Stenotrophomonas maltophilia, B. cenocepacia, and Staphylococus epidermis. To determine the MIC, the broth microdilution method was used.[75] A single bacterial colony was grown in LB medium overnight at 37 °C and 180 rpm shaking. The compounds were prepared as stock solutions of 2 mg/mL in sterilized milliQ deionized water, added to the first well of 96-well sterile, polypropylene round-bottom microtiter plates (TPP, untreated, Corning Incorporated, Kennebunk, USA), and diluted serially by 1/2. […] The bacterial inoculum was prepared by measuring the absorbance of the overnight culture, which was diluted to concentration of the bacteria was quantified by measuring absorbance at 600 nm and diluted to an OD600 of 0.022 in MH medium pH 7.4 (Sigma-Aldrich, Buchs, Switzerland). The sample solutions (150 μL) were mixed with 4 μL of diluted bacterial suspension with a final inoculation of about 5 × 10^5 CFU. For each test, two columns of the plate were kept for sterility control (MH medium only) and growth control (MH medium with bacterial inoculum, no compound). […] The plates were incubated at 37 °C for 16–20 h under static conditions. 15 μL of 3-(4,5-dimethylthiazol-2-yl)-2,5-diphenyltetrazolium bromide (MTT)[76] (1 mg/mL in sterilized milliQ deionized water) was added to each well, and the plates were incubated at room temperature until MTT staining was completed. The MIC was defined as the lowest concentration of the dendrimer that inhibits the visible growth of the tested bacteria (yellow) with the unaided eye.
# HEK293 cells = test: Alamar blue cytotoxicity, HEK293; assay type: cell-based, human; settings: 24 h, mean ± SD, n = 3, read-out: Toxicity on HEK293 cells
# Experimental: (§3) The A549 human lung adenocarcinoma cells are derived from a patient and were kindly given to us by Dr. Georgia Konstatinidou (Pharmacology Institute, Bern University). HEK293T cells were obtained from ATCC (CRL-11268). A549 and HEK293 were cultured in an incubator at 37 °C with 5% CO2 in RPMI-1640 (Gibco) and DMEM (Gibco) containing 10% fetal bovine serum (Thermo Fisher), 100 I.U./mL penicillin, and 100 μg/mL streptomycin (Gibco).
# (§4) The viability of the cells was assessed with an AlamarBlue assay (ThermoFisher). Cells were seeded into 96-well plates, 4000 cells/well (HEK293) and 8000 cells/well (A549), the day before the experiment. Cells were then treated with the increasing concentration of the compound and incubated for 24 h at 37 °C in the presence of 5% CO2. The next day, the medium was removed and replaced by a 10% AlamarBlue solution in full growth medium (DMEM or RPMI-1640). The cells were incubated for 3–5 h at 37 °C with 5% CO2 in a humidified atmosphere. The fluorescence was then measured on a Tecan Infinite M1000 Pro plate reader at λex 560 nm and λem 590 nm. The value was normalized according to the untreated cells.
# [3] = test system: Stenotrophomonas maltophilia; test: microbe, parasite or virus in culture; assay type: cell-based; settings: pH 7.4
# Experimental: as §2
# S. aureus COL MRSA = test system: S. aureus COL MRSA
# How it was run: as §1
# K. pneumoniae NCTC418 = test system: K. pneumoniae NCTC418
# How it was run: as §1
# K. pneumoniae Oxa-48 = test: MIC broth microdilution, K. pneumoniae Oxa-48; assay type: cell-based, Klebsiella pneumoniae; settings: MDR strain; MH broth pH 7.4, 16–20 h, 37 °C
# Experimental: as §2
# P. aeruginosa ZEM9A = test: microbe, parasite or virus in culture; assay type: cell-based, Pseudomonas aeruginosa; settings: pH 7.4
# Experimental: as §2
# A549 cells = test: Alamar blue cytotoxicity, A549; assay type: cell-based, human; settings: 24 h, mean ± SD, n = 3, read-out: Toxicity on A549 lung cancern cells
# Experimental: as §3, §4
# P. aeruginosa PA14 = test: microbe, parasite or virus in culture
# Experimental: as §2
# PA14 2P4 (pmrB) = test: microbe, parasite or virus in culture; settings: supplementary CSV
# Experimental: as §2
# PA14 4.13 (phoQ) = test: microbe, parasite or virus in culture; settings: supplementary CSV
# Experimental: as §2
# PA14 4.18 (pmrB) = test: microbe, parasite or virus in culture; settings: supplementary CSV
# Experimental: as §2
# Enterobacter cloacae = test: microbe, parasite or virus in culture; settings: pH 7.4
# Experimental: as §2
# Burkolderia cenocepacia = test: microbe, parasite or virus in culture
# Experimental: as §2
# P. aeruginosa ZEM-1A = test: microbe, parasite or virus in culture; settings: pH 7.4
# Experimental: as §2
# [4] = MH broth pH 7.4, 16–20 h, 37 °C
# [5] = supplementary CSV, ranges of Table 1 given as one number
structure (smiles),measurement,setting,value
"CC(C)C[C@H](NC(=O)[C@H](CC(C)C)NC(=O)[C@@H](CC(C)C)NC(=O)[C@H](CCCCN)NC(=O)[C@@H](CC(C)C)NC(=O)[C@@H](CC(C)C)NC(=O)[C@H](CCCCN)NC(=O)[C@@H](CC(C)C)NC(=O)[C@@H](CC(C)C)NC(=O)[C@H](CCCCN)NC(=O)[C@@H](N)CCCCN)C(N)=O [HP25, KKllKllKlLL]",MIC P. aeruginosa PAO1,P. aeruginosa PAO1; [4],8 to 16 µg/mL
same,MIC P. aeruginosa PAO1,P. aeruginosa PAO1; [5],12 µg/mL
same,MIC E. coli W3110,E. coli W3110; [4],8 to 16 µg/mL
same,MIC E. coli W3110,E. coli W3110; [5],12 µg/mL
same,MIC A. baumannii ATCC19606,A. baumannii ATCC19606; [4],32 µg/mL
same,MIC A. baumannii ATCC19606,A. baumannii ATCC19606; [5],32 µg/mL
same,"MIC, span over E. coli, P. aeruginosa, and A. baumannii",[1],4 to 32 µg/mL
same,EYPC vesicle leakage (%),[2],4%
"CC(C)C[C@H](NC(=O)[C@H](CC(C)C)NC(=O)[C@H](CC(C)C)NC(=O)[C@@H](CCCCN)NC(=O)[C@H](CC(C)C)NC(=O)[C@H](CC(C)C)NC(=O)[C@@H](CCCCN)NC(=O)[C@H](CC(C)C)NC(=O)[C@H](CC(C)C)NC(=O)[C@@H](CCCCN)NC(=O)[C@H](N)CCCCN)C(N)=O [ln69, kkLLkLLkLLL]",MIC Staphylococcus epidermis,Staphylococcus epidermis,4 µg/mL
same,IC50,HEK293 cells,45 ± 8.9 µM
same,MIC Stenotrophomonas maltophilia,[3],2 µg/mL
same,MIC S. aureus COL MRSA,S. aureus COL MRSA; [4],16 µg/mL
same,MIC S. aureus COL,S. aureus COL MRSA; [5],16 µg/mL
same,MIC P. aeruginosa PAO1,P. aeruginosa PAO1; [4],8 µg/mL
same,MIC P. aeruginosa PAO1,P. aeruginosa PAO1; [5],8 µg/mL
same,MIC K. pneumoniae NCTC418,K. pneumoniae NCTC418; [4],8 µg/mL
same,MIC K. pneumoniae NCTC418,K. pneumoniae NCTC418; [5],8 µg/mL
same,MIC E. coli W3110,E. coli W3110; [4],4 µg/mL
same,MIC A. baumannii ATCC19606,A. baumannii ATCC19606; [4],2 to 4 µg/mL
same,MIC A. baumannii ATCC19606,A. baumannii ATCC19606; [5],3 µg/mL
same,MIC K. pneumoniae Oxa-48,K. pneumoniae Oxa-48,4 µg/mL
same,MIC ZEM9A,P. aeruginosa ZEM9A,8 µg/mL
same,IC50,A549 cells,21 ± 3.3 µM
same,MIC PA14,P. aeruginosa PA14; [4],2 µg/mL
same,MIC P. aeruginosa PA14,P. aeruginosa PA14; supplementary CSV,2 µg/mL
same,MIC P. aeruginosaPA14 2P4,PA14 2P4 (pmrB),32 µg/mL
same,MIC P. aeruginosa PA14 4.13,PA14 4.13 (phoQ),4 µg/mL
same,MIC P. aeruginosa PA14 4.18,PA14 4.18 (pmrB),16 µg/mL
same,MIC Enterobacter cloacae,Enterobacter cloacae,4 µg/mL
same,MIC Burkolderia cenocepacia,"Burkolderia cenocepacia; MDR strain, MH broth pH 7.4, 16–20 h, 37 °C",>64 µg/mL
same,MIC B. cenocepacia,Burkolderia cenocepacia; supplementary CSV,> 64 µg/mL
same,MIC ZEM-1A,P. aeruginosa ZEM-1A,2 µg/mL
same,MIC S. aureus Newman,S. aureus Newman; [4],8 µg/mL
same,MIC S. aureus Newmann,S. aureus Newman; supplementary CSV,8 µg/mL
